Source: a melting point compilation (Tetko et al.; mined from patent text by program, amines drawn as free bases though some values may be those of a salt)

`Nc1nonc1-c1nc2ccccc2n1CC(=O)C=Cc1ccccc1` gave a melting point of 176 to 180 °C.
With `CCCCCCCOc1ccc(C(=O)CCC(=O)OCC)cc1` the melting point was 39.7 to 40.1 °C.
For `O=C(Nc1c(Cl)cc(C(F)(c2cccs2)C(F)(F)F)cc1Cl)c1cccc(NC(=O)c2c(F)cc(F)cc2F)c1F` (centres undefined), the melting point was 190 to 193 °C.
Work on `CCN(CC)Cc1nc(-c2ncn3c2CN(C)C(=O)c2ccccc2-3)no1` yielded a melting point of 153 to 154 °C.
`CC(C)(C)c1cc(S)n2ncnc2n1` showed a melting point of 285 to 286 °C.
`N#Cc1[nH]c(-c2c(Cl)cc(C(F)(F)F)cc2Cl)nc1Br` showed a melting point of 270 to 272 °C.
With `C=CCCCCCCOc1ccc(CCC(NC(C)=O)(C(=O)OCC)C(=O)OCC)cc1` the melting point was 50 to 53 °C.
In the case of `O=CCCN1CCc2cc(Br)ccc2C1=O`, the melting point is reported as 93 to 94 °C.
`COc1ccc(-c2c(Cl)c(CNC(C)(C)C)nc3sc4c(c23)CCN(Cc2ccccc2)C4)cc1OC` showed a melting point of 134 to 135 °C.
Work on `CCOC(=O)CN(SN(C)C(=O)Oc1cccc2c1OC(C)(C)C2)c1ccccc1` yielded a melting point of 92 to 93 °C.
Molecule `CNC(=S)C1(c2cccnc2)CCCCC1=CCOc1ccccc1` (centres undefined) has a melting point of 121 to 122 °C.
In the case of `COCCN(CCOC)c1ccc(P(=O)(C(=O)c2c(C)cc(C)cc2C)C(=O)c2c(C)cc(C)cc2C)cc1`, the melting point is reported as 103 to 106 °C.
`CC(=O)Oc1ccc(-n2cc(C(=O)O)c(=O)cc2-c2ccc(N(C)C)cc2)cc1` showed a melting point of 128 to 131 °C.
`COc1ccc(OC)c2c1c(C(=O)C(=O)NC1=CC(=O)OC1)cn2Cc1ccc(Cl)cc1` gave a melting point of 212 to 215 °C.
`CS(=O)(=O)N1CCN([C@@H](CNC(=O)c2ccc(OCc3ccncc3)cc2)C(=O)NO)CC1` gave a melting point of 213 °C.
In the case of `COCCOc1c2ccccc2c(C=O)c2ccccc12`, the melting point is reported as 87 to 88 °C.
`COC(=O)c1cc2c([N+](=O)[O-])csc2nc1C1=NC(C)(C(C)C)C(=O)N1` (centres undefined) gave a melting point of 201 to 202 °C.
In the case of `COc1ccnc(C(=O)N[C@H]2COC[C@H](CC3CCCCC3)[C@@H](OCC(C)C)[C@H](C)OC2=O)c1O`, the melting point is reported as 89 to 92 °C.
Molecule `CC(C)n1c(=O)c2ccccc2n(SC(Cl)(Cl)Cl)c1=O` has a melting point of 105 to 106 °C.
For `COc1ccc2nscc2c1`, the melting point was 51 to 55 °C.
`Cc1cc(C)c2c3ccccc3c(=O)n(CCN(C)C)c2n1` showed a melting point of 128 to 130 °C.
Molecule `CCCCCCCCCCCCCCCCCCOc1ccc2c(c1OCCCCCCCCCCCCCCCCCC)C(=O)c1ccccc1C2=O` has a melting point of 100 to 107 °C.
For `CC(=O)OC[C@H]1OC(O)[C@H](OC(C)=O)[C@@H](F)[C@@H]1OC(C)=O` (some centres undefined), the melting point was 115 to 120 °C.
Work on `COCCc1ccsc1S(N)(=O)=O` yielded a melting point of 64 to 73 °C.
`C=CCc1c(OC(C)=O)ccc2c(C)cc(=O)oc12` gave a melting point of 98.8 to 99.8 °C.
`COc1ccc(-c2c(C)ncc(C#N)c2Nc2ccc3[nH]ccc3c2C)cc1OC` showed a melting point of 202 to 203 °C.
For `O=S(=O)(c1ccc(Cl)cc1)N1CCCC1c1ccccc1` (racemic), the melting point was 119 °C.
Molecule `COc1cc(OCCN2CCCC2)cc(-c2nc3cc(OC)cc(OC)c3c(=O)[nH]2)c1` has a melting point of 159 to 160 °C.
With `CN(C)S(=O)(=O)c1ccc2c(C=O)c[nH]c2c1` the melting point was 250 to 252 °C.
Work on `Cc1cccc(-c2cc(C(F)(F)F)n3ncc(C#N)c3n2)c1` yielded a melting point of 202 °C.
Molecule `COCC(=O)Nc1nc(NC(=O)COC)c2[nH]cnc2n1` has a melting point of 219 to 220 °C.
With `NC(=O)c1ccccc1N1CCC1COc1cncc(F)c1` (centres undefined) the melting point was 71 to 72 °C.
`CCCCCCC1C(=O)NC(C(=O)SCCNC(C)=O)(C(O)C2C=CCCC2)C1(C)O` (centres undefined) gave a melting point of 82 °C.
Molecule `CN1CCN(c2cccc3c2C[C@H](NC(=O)c2ccc(F)cc2)CC3)CC1` has a melting point of 189 to 190 °C.
Work on `CCOC(=O)C(NC(=O)OC(C)(C)C)c1csc(N)n1` (centres undefined) yielded a melting point of 143 to 144 °C.
For `COC(=O)C=Cc1ccc(OCCN(C)c2ccccn2)cc1`, the melting point was 93 to 95 °C.
With `Cn1nc(N2CCNCC2)c2ccccc21` the melting point was 100 to 102 °C.
`CC(=O)NC[C@H]1CN(c2ccc(N3C[C@H]4CN(C(=O)OCc5ccccc5)C[C@H]4C3)cc2)C(=O)O1` showed a melting point of 135 to 140 °C.
`Cn1cnnc1COc1nn2c(-c3ccccc3)nnc2cc1-c1ccccc1` gave a melting point of 230 to 235 °C.
Work on `CC(C)[C@H](N)C(=O)N[C@@H](Cc1ccccc1)C(O)[C@H](Cc1ccccc1)NC(=O)[C@@H](N)C(C)C` yielded a melting point of 131 to 132 °C.
`CS(=O)(=O)c1ccc(N2CC=C(N3CCCC3)CC2)cc1` gave a melting point of 141 to 143 °C.
In the case of `COc1cccc(C2=C(C#N)C(c3ccccc3OC)c3c[nH]nc3N2)c1` (centres undefined), the melting point is reported as 192 °C.
Molecule `CCOC(=O)c1c(CC(=O)O)n(-c2ccc(OC(C)C)cc2)c2ccc(Oc3nc(C)ccc3C#N)cc12` has a melting point of 179 °C.
Work on `C#CC[C@H](c1nc2cc(Cl)ccc2c(=O)n1Nc1ccccc1)N(CCCN)C(=O)c1cccc(Cl)c1F` yielded a melting point of 101 to 103 °C.
Molecule `Cc1cc(NNC(=O)OC(C)(C)C)nnc1-c1cccc([N+](=O)[O-])c1` has a melting point of 160 to 162 °C.
Work on `FC(F)(F)c1ccc2nc(-c3csc(Nc4ncccc4Cl)n3)[nH]c2c1` yielded a melting point of 207 to 208 °C.
With `CCCCS(=O)(=O)NC1Cc2ccccc2C1` the melting point was 60 to 62 °C.
Molecule `Nc1nc(N)c(-c2ccc(Cl)cc2Cl)c(C(=O)O)n1` has a melting point of 221 °C.
Molecule `IC#CCOc1ccncc1` has a melting point of 140 to 141 °C.
For `C=C1c2[nH]c3ccc(OC)cc3c2CCN1C=O`, the melting point was 180 to 181 °C.
In the case of `O=C1c2ccc(Nc3ccc(F)cc3F)cc2CCc2cc(OCCO)ccc21`, the melting point is reported as 138 °C.
With `COC(=O)Nc1cccc(C)c1CNc1cccn2c(C)c(C)nc12` the melting point was 136 to 138 °C.
`COC(=O)c1csc(-c2ccc([N+](=O)[O-])cc2)n1` showed a melting point of 224 to 227 °C.
For `CC1(C)OC(=O)Nc2ccc(I)cc21`, the melting point was 196 to 197 °C.
`Cc1cccc(Nc2cc(Cl)nc(SCC(=O)NN3CCCCC3)n2)c1C` showed a melting point of 113 to 115 °C.
Molecule `Nc1ccc(S(=O)(=O)N2CCN(c3ccc(F)cc3)CC2)cc1` has a melting point of 180 to 182 °C.
For `Cn1nc(O)c(C(F)F)c1Cl`, the melting point was 122 to 123 °C.
For `O=C(O)Cn1ncc2c(=O)n3c(nc21)SCC3`, the melting point was 212 to 214 °C.
With `O=C(CCc1c[nH]c2ccccc12)NCC1CNc2ccccc2O1` (centres undefined) the melting point was 145 to 146 °C.
With `COc1ccnc(CCc2nc3cc(-c4ccsc4)cnc3[nH]2)c1` the melting point was 154 to 155 °C.
For `CC(C)(C)c1cc2c(cc1O)C(C)(C)CC2(C)C`, the melting point was 114 °C.
In the case of `CCCC(Cc1ccc(OCCN2CCCCCC2)cc1)(C(=O)O)S(=O)(=O)c1ccc(OC)cc1` (centres undefined), the melting point is reported as 55 °C.
With `Cc1ccc(-c2cc(CNC(CO)CO)c(=O)n(CC(C)C)n2)cc1` the melting point was 134 to 135 °C.
Molecule `O=C1CCC(c2ccc(NC(=O)CCN3CCC(c4ccccc4)CC3)cc2)=NN1` has a melting point of 238 to 240 °C.
`CSc1ncc2cc(-c3c(Cl)cccc3Cl)c(=N)n(C)c2n1` gave a melting point of 198 to 200 °C.
With `O=C(O)c1cc(C(c2cc(F)ccc2F)S(=O)(=O)c2ccc(Cl)cc2)c(Cl)cn1` (centres undefined) the melting point was 94 to 96 °C.
Work on `CCCCCCCCCOc1cc(C(N)=O)ccn1` yielded a melting point of 108 to 110 °C.
Work on `CCOC(=O)c1cc2cc(NC(C)=O)ccc2nn1` yielded a melting point of 256 to 258 °C.
`Cc1cc2nc(Cl)cc(N)c2[nH]1` showed a melting point of 270 °C.
`COCc1cc(C2=NOC(c3cc(Cl)cc(Cl)c3)(C(F)(F)F)C2)ccc1C(=O)NC(=N)OC` (centres undefined) showed a melting point of 132 to 134 °C.
With `CC(=O)C1CCC2C3CCC4CC(O)C(N5CCOC(C)(C)C5)CC4(C)C3CCC12C` (centres undefined) the melting point was 174 to 176 °C.
`CSc1cc(CCC(=O)O)cc(-c2nc(=O)c3ccccc3s2)n1` gave a melting point of 236 °C.
Work on `Cc1cc(C)nc(C(=O)n2cc(CC(=O)O)c3ccc(Cl)cc32)c1` yielded a melting point of 219 to 220 °C.
`CC(C)Oc1cc(COc2ccc(C(F)(F)F)cc2)cc(COc2cc(CCC(=O)O)n(-c3ccccc3)n2)c1` showed a melting point of 55 to 58 °C.
Work on `Nc1cc[nH]c(=O)c1Cl` yielded a melting point of 264 to 267 °C.
Work on `NS(=O)(=O)c1cc2cc3c(cc2[nH]1)OCO3` yielded a melting point of 234 to 237 °C.
In the case of `Cc1c(Cc2ccc(C(=O)O)s2)n(S(=O)(=O)c2cccc(C(C)(C)C)c2)c2ccc(C(F)(F)F)cc12`, the melting point is reported as 171 °C.
For `CCOc1ccccc1OC(c1ccccc1)C(O)CN` (centres undefined), the melting point was 98.5 to 99.9 °C.
For `O=C(Nc1cccc(C(F)(F)F)c1)c1ccc([N+](=O)[O-])cc1`, the melting point was 210 °C.
Molecule `CC(C)CC(C=O)NC(=O)C(Cc1c[nH]cn1)NC(=O)C1Cc2c([nH]c3ccccc23)CN1C(=O)OCc1ccccc1` (centres undefined) has a melting point of 126 to 130 °C.
For `Cc1cc(C(=O)Nc2cc(Oc3ccc4nc(NC(=O)C5CC5)cn4n3)ccc2F)n(C)n1`, the melting point was 237 °C.
For `O=C1N(N2CCCCC2)c2ccccc2C1(Cc1ccncc1)c1ccccc1` (centres undefined), the melting point was 128 to 131 °C.
With `COc1cc(C)c(CNCCc2ccc(O)cc2)cc1O` the melting point was 122 to 124 °C.
Work on `O=C(O)c1ccc(-c2cc3cccnc3c(-c3cccc4nonc34)n2)cc1` yielded a melting point of over 300 °C.
`CCCOc1ccc(S(=O)(=O)N2CCN(CC)CC2)cc1-c1nc2cc(Cl)c([N+](=O)[O-])cc2c(=O)[nH]1` showed a melting point of 239 to 241 °C.
With `CCCn1cnc2c1c1nnc(-c3ccccc3)n1c(=O)n2CCC` the melting point was 215 to 217 °C.
For `O=C(O)[C@@H]1C[C@H]2C[C@@H](C=Cc3nsnc3O)CC[C@H]2CN1` (racemic), the melting point was 239 to 242 °C.
In the case of `Oc1ccc(-c2nnc(Cc3ccc(Oc4ccccc4)cc3)o2)cc1`, the melting point is reported as 202 to 203 °C.
`O=[N+]([O-])c1ccc(C=Cc2ccc(Cl)c(Cl)c2)cc1` gave a melting point of 190 to 191 °C.
`CCn1cc(C(=O)O)c(=O)cc1-c1c(Cl)cccc1Cl` gave a melting point of 200 to 201 °C.
For `N#CC1(N)CCSCC1`, the melting point was 51 to 52 °C.
`CC(CN1CC(=O)N(CN2CCSCC2)C(=O)C1)N1CC(=O)NC(=O)C1` (centres undefined) showed a melting point of 206 to 208 °C.
`Cc1nn(-c2ccccn2)cc1COc1ccc(CCC(=O)O)cc1` gave a melting point of 129 to 130 °C.
Work on `CN(C)c1cccc(OC(=O)NC2C(=O)N(CCC3C4CC5CC(C4)CC3C5)c3ccccc3N(c3ccccc3)C2=O)c1` (centres undefined) yielded a melting point of 188 to 189 °C.
`Cc1c[nH]c2c1C(=O)CC(c1cccs1)C2` (centres undefined) showed a melting point of 195 to 196 °C.
For `Cc1cc([N+](=O)[O-])c(NC(C)C(=O)N(C)O)c([N+](=O)[O-])c1` (centres undefined), the melting point was 171 to 172 °C.
Work on `CN1C(=O)C(=Cc2nc(C(C)(C)C)c(O)c(C(C)(C)C)n2)SC1=S` yielded a melting point of 226 to 228 °C.
`O=C(c1cc(N2CCC(N3CCCC3)CC2)ccn1)N(O)Cc1ccccc1` gave a melting point of 135 to 140 °C.
`Cc1noc(NS(=O)(=O)c2ccccc2-c2ccsc2)c1C` showed a melting point of 147 to 148 °C.
